According to ChEMBL document CHEMBL1201862, “PubChem BioAssay data set” (2004):
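Where inhibition never reached the appropriate level, the endpoint shown equals the highest concentration tested. Otherwise, values were interpolated linearly from a five-concentration, 48-hour dose response in 96-well plates. Abbreviation: GI50, concentration required for 50% inhibition of growth.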 Calls of active or inactive are those of the source. Cut-off read from the data, not from the text of the source: active = GI50 up to about 1.1 µM and inactive = higher.

Legend:
Test in all cases: NCI tumour cell line growth inhibition, 48 h
SNB-78 = test system: SNB-78
XF498 = test system: XF498
DMS-114 = test system: DMS-114
M19-MEL = test system: M19-MEL
RXF 631 = test system: RXF 631
DLD-1 = test system: DLD-1
DMS-273 = test system: DMS-273
HOP-18 = test system: HOP-18

Measured: GI50

COc1cc2c(cc1OC)[C@@H]([C@H](O)c1ccccc1)NCC2
inactive: SNB-78 > 100 µM | XF498 > 100 µM | DMS-114 > 100 µM | M19-MEL > 100 µM | RXF 631 > 97.3 µM | DLD-1 > 100 µM | DMS-273 > 100 µM | HOP-18 > 100 µM

CCCCCCCCCCCCC(Br)C(C)=O (stereo unspecified)
inactive: SNB-78 > 100 µM | XF498 > 100 µM | DMS-114 > 100 µM | M19-MEL > 100 µM | RXF 631 > 100 µM | DLD-1 > 100 µM | DMS-273 > 100 µM | HOP-18 > 100 µM
